Experimental findings from US11730759B1, “Sulfasalazine-loaded zinc oxide nanoparticles for the treatment of ulcerative colitis” (priority 2023, dated 2023) are described below.

The experiment relates to ulcerative colitis (UC) rats. Format: in vivo. The settings on record: sulfasalazine 100 mg/kg P.O., loaded ZnONPs 100 mg/kg P.O. containing 12.2 mg sulfasalazine/kg. The procedure:
Forty male albino rats were randomly divided into four groups (n=10 rats), with all groups were treated for 7 days, as follows:
Group 1: Rats received saline daily for 21 consecutive days by rectal catheter and served as the normal control group (negative control).
Group 2: The disease group received 1 ml acetic acid 3% for three days and served as the ulcerative colitis (UC) control group (positive control).
Group 3: In the standard group, rats received free sulfasalazine (100 mg/kg; P.O. i.e., about 20 mg/rat 200 g) after induction of UC by acetic acid 3% as in group 2.
Group 4: The treatment group, where UC rats received the dose of ZnONPs loaded sulfasalazine (100 mg/kg; P.O. of the ZnONPs) containing 12.2 mg sulfasalazine/kg; P.O.
Markers estimated: • Macroscopic examination of colonic mucosa. • Inflammatory mediators such as tumor necrosis factor-α (TNF-α), interleukin 1beta (IL 1B), malondialdehyde (MBA), reduced glutathione (GSH), superoxide dismutase (SOD), caspase-1, and cyclooxygenase-2 (COX2). • Inflammatory mediators are estimated by ELIZA.

Each structure is given as a SMILES string.

With `O=C(O)c1cc(/N=N/c2ccc(S(=O)(=O)Nc3ccccn3)cc2)ccc1O` [sulfasalazine], the “overall effect on ulcerative colitis (inflammatory mediators, healing) relative to other treatments” value was “lower than that observed for Group 4”.
